We go through one compound from PMC7352342, “Inhibition of Patched Drug Efflux Increases Vemurafenib Effectiveness against Resistant Braf^V600E Melanoma” (Cancers, 2020).

Data set [1] is described as follows: Cytotoxicity assay (neutral red), MeWo cells. The class given is cell-based, human. Conditions: human, MeWo melanoma cells, MeWo; 24 or 48 h; read-out: sPAH-IC50 (cytotoxicity of sPAH alone). On the procedure:
(§1) Human melanoma cell lines A375 and MeWo were purchased from ATCC, and cultured in DMEM medium supplemented with 10% fetal bovine serum and penicillin/streptomycin (Invitrogen) at 37 °C in a 5% CO2/95% water-saturated air atmosphere. Melanoma cell lines SKMEL 28, SKMEL V3, WM9S, and WM9R were provided by Robert Ballotti (C3M, Nice, France). MeWo-dxrR cells were obtained by adding increasing concentrations of doxorubicin, up to 0.2 µM, in the culture medium over 6 months. These cells were grown in medium supplemented with 0.2 µM dxr. WM9R cells were obtained by adding increasing concentrations of vemurafenib, up to 5 µM, in the culture medium over 6 months. These cells were grown in medium supplemented with 5 µM vemurafenib. HEK cells were grown in 75 mm tissue culture dishes (Falcon, Franklin Lakes, NJ, USA) in Dulbecco’s modified Eagle’s medium (Gibco, Life Technologies, Saint Aubin, France) supplemented with 10% fetal calf serum (Hyclone, Thermo Fisher Scientific GMBH, Ulm, Germany) and 1% penicillin/streptomycin (Gibco, Life Technologies, Saint Aubin, France) in a humidified incubator at 37 °C (5% CO2).
(§2) Cells were seeded in 96-well plates in triplicate and grown in medium to achieve 70 to 80% confluence. Medium was then removed and replaced with 100 µL/well of complete medium containing PAH or DMSO as a control. After 2 h, 100 µL of complete medium containing serial dilutions of dxr, cisplatin or vemurafenib were added. Plates were incubated at 37 °C and 5% CO2. After 24 or 48 h, cells were incubated for 3 h at 37 °C with 100 µL/well neutral red (NR) solution (50 µg/mL in medium) following the manufacturer’s protocol. Measurements were made in microplate readers (Multiskan Go Microplate Spectrophotometer from Thermo Scientific).

In data set [2] the test system is MeWo cells. Put plainly: Cytotoxicity assay (neutral red), MeWo cells. The class given is cell-based, human. On the procedure: as §1, §2
A short description of data set [3]: Cytotoxicity assay (neutral red), A375 cells. The class given is cell-based, human. Conditions: human, A375 melanoma cells, A375; 24 or 48 h; read-out: sPAH-IC50 (cytotoxicity of sPAH alone). As for the experimental part:
as §1, §2

Data set [4] concerns A375 cells. Put plainly: Cytotoxicity assay (neutral red), A375 cells. The settings on record: A375. The data set is classed as cell-based, human. As for the experimental part:
as §1, §2

Data set [5] in a line: Cytotoxicity assay (neutral red), WM9S cells. The data set is classed as cell-based. The settings on record: human, WM9S melanoma cells; read-out: sPAH-IC50 (cytotoxicity of sPAH alone). As for the experimental part: as §1
(§3) Cells were seeded in 96-well plates in triplicate and grown in medium to achieve 70 to 80% confluence. […] Measurements were made in microplate readers (Multiskan Go Microplate Spectrophotometer from Thermo Scientific).

Data set [6] concerns WM9S cells. Put plainly: Cytotoxicity assay (neutral red), WM9S cells. Conditions: WM9S; 24 h; sPAH between 10 and 20 µM. The data set is classed as cell-based. On the procedure:
as §1, §3

Data set [7] concerns MeWo cells. Put plainly: Dxr efflux measurement by fluorescence microscopy, MeWo cells. The class given is cell-based, human. Conditions: 30 min in efflux buffer. On the procedure: Dxr efflux measurements were carried out as previously described. Cells were seeded on coverslips in 24-well plates and allowed to grow to 80% confluence. Coverslips were incubated at 37 °C and 5% CO2 with 10 μM dxr in physiological buffer (140 mM NaCl, 5 mM KCl, 1 mM CaCl2, 1 mM MgSO4, 5 mM glucose, 20 mM HEPES, pH 7.4). After 2 h, three coverslips were immediately fixed with 4% PFA for the dxr loading control, rapidly washed with PBS and mounted in SlowFade Gold antifade reagent with DAPI (Invitrogen). The other coverslips (triplicated per condition) were incubated with physiological buffer supplemented with DMSO or 10 µM of PAH under gentle shaking at room temperature and protected from light. After 30 min, coverslips were fixed with 4% PFA, washed, and mounted as described above. For competition on dxr loading, A375 and WM9R cells seeded on coverslips were incubated for 1 h at 37 °C and 5% CO2 with 10 μM dxr in physiological buffer in the presence or the absence of 100 µM vemurafenib. Images were acquired with a Zeiss Axioplan 2 fluorescence microscope coupled to a digital charge-coupled device camera using a 40×/1.3 Plan NeoFluar objective and filters for Alexa 594. Dxr fluorescence was quantified using ImageJ software. Sampling of cells was performed randomly. About 100 cells (from three wells) were scored per condition per experiment.

The test system of data set [8] is A375 cells. Put plainly: BODIPY-cholesterol efflux measurement, A375 cells. The class given is cell-based, human. Conditions: sPAH in efflux buffer, 30 min.
Data set [9] concerns A375 cells. Put plainly: Wound-healing assay, A375 cells. The data set is classed as cell-based, human. The settings on record: 48 h after wounding, sPAH added to vemurafenib. As for the experimental part:
Once cells were confluent in 24-well plates, a wound was created using a p200 tip. Two pictures were taken at two different points of each well immediately after wounding, and 48 h after wounding. Images were taken with Leica DM IRB (5×). The width of the wound was measured using ImageJ software and reported as percentage final wound width/initial wound width.

Data set [10] is described as follows: Metabolic stability with mice liver microsomes and NADPH. The data set is classed as in vitro ADME. As for the experimental part:
A 10 µL aliquot of the sPAH stock solution (10 mM in DMSO) was diluted in 990 µL of a mixture of acetonitrile and water. This solution was then diluted 100-fold in phosphate buffer containing mice liver microsomes (0.5 mg/mL), 1 mM NADPH, and 3 mM MgCl2, and incubated at 37 °C. After 2, 10, 20, 40, and 60 min, 70 µL aliquots were collected and mixed with 70 µL acetonitrile at 0 °C. Equivalent experiments were performed without NADPH in order to identify chemical instability or enzymatic process not depending on NADPH, and with testosterone as a positive control. The enzymatic reaction was stopped by addition of acetonitrile. Samples were analyzed by LC–MS/MS on an UHPLC LC–MS 8030 (Shimazu, Kyoto, Japan).
For metabolite identification, 50 µM of sPAH were incubated with mice liver microsomes and NADPH. Two samples were prepared: one in which acetonitrile was added immediately (t0) and one in which acetonitrile was added after 30 min. After centrifugation for 5 min at 15,000× g, 2 samples of each supernatant were analyzed by LC–MS/MS on a LC–MS 8030 (Shimazu, Kyoto, Japan) and detected by selected ion monitoring (SIM).
(Liver microsomes are a subcellular fraction often used to study metabolism.)

Where two headings read alike, the source gives them in different places.

As usually defined, the IC50 is the concentration at which inhibition is half-maximal. Usually half-life stands for the time in which the quantity being followed falls by half. A higher half-life goes with slow decline. Turning to `COc1cc(C)c(CC/C(C)=C/Cc2cc(O)ccc2O)c(C)c1C` [sPAH, Panicein A hydroquinone], the IC50 in data set [1] is 36 ± 2.3 µM; in [2] (MeWo cells, 2 µM Dxr present, listed as Synthetic PAH, read-out: IC50 of PAH at 2 µM Dxr) it was 8.1 ± 1.3 µM; in data set [2] (MeWo, 24 or 48 h, read-out: sPAH-IC50 (cytotoxicity of sPAH alone)) it was about 40 µM; in data set [3], about 40 µM; in [4] (24 or 48 h, read-out: sPAH-IC50 (cytotoxicity of sPAH alone)), 38.3 ± 6.8 µM; in data set [5], 28.6 ± 5.1 µM. Also, the “IC50 of cisplatin in the presence of sPAH” value in data set [2] (MeWo, sPAH 20 µM vs DMSO (Figure S2)) is “significantly decreased”; in data set [4] (sPAH 20 µM vs DMSO (Figure S2)) it was “significantly decreased”. In addition, the “sensitivity of cells to vemurafenib in the presence of sPAH” value is “significantly increased” in data set [4] (24 h, sPAH between 10 and 20 µM); “significantly increased” in data set [6]. Besides, the “inhibition of dxr efflux, synthetic compared with natural PAH” value in data set [7] is on record as “as efficiently as the natural PAH”. Moreover, the “efflux of BODIPY-cholesterol” value in data set [8] was “inhibited the efflux of cholesterol”. The “effect on vemurafenib efficacy against cell migration” value in data set [9] is on record as “increased vemurafenib efficacy”. In addition, in data set [10] (50 µM, mice liver microsomes and NADPH, 30 min), the “metabolic fate (LC-MS/MS)” value is listed as “rapidly oxidized in its quinone form”. Moreover, the half-life at 1 µM in data set [10] (mouse, liver microsomes, mice microsomes and NADPH, 37 °C) stood at 1 min.
